From US12168662B1, “Pyrido[4′,3′:4,5]pyrrolo[2,3-c][2,7]naphthyridines compounds as CK2 inhibitors” (KING FAISAL UNIVERSITY, priority 2023, dated 2024)

Columns and labels:
A375 (melanoma) = test: In vitro cytotoxic activity assay (MTT); type: cell-based; conditions: Homo sapiens, A-375; A375 cells, exposed for 96 hours, 50% inhibition of cell proliferation; read-out: Cytotoxicity activity IC50, A375 (melanoma)
Description: (§1) Compounds 1-16 were screened for their in vitro cytotoxic activity utilizing a 3-(4,5-dimethyl-thiazol-2-yl)-2,5-diphenyltetrazolium bromide (MTT) assay against selected cancer human cell lines consisting of PC3 (prostate), HCT116 (colon), A375 (melanoma), H1299 (lung), MIAPaCa-2 (pancreas), HL60 (leukemia), MCF7 (breast), MDA-MB-231 (breast) (T. Mosmann, J. Immunol. Meth., 1983, 65, 55-63). The cells were cultured at 37° C. in RMPI1640 medium supplemented with 10% fetal bovine serum, 50 IU/mL penicillin, and 50 μg/mL streptomycin in a 5% CO2 incubator. All cells were sub-cultured 3 times/week by trypsinisation. Viable cells were seeded and allowed to adhere for 12 hours before a test drug was added in 96-well plates at an initial density of 1.0×10^5 cells/mL. Tumor cell lines were separately exposed to various concentrations of the tested compounds followed by incubation at a temperature of 37° C. during 96 hours inside a medium of fresh RMPI 1640. Cells were subsequently incubated at 37° C. using MTT at 0.5 mg/mL during 4 hours. After removal of supernatant, formazan crystals were dissolved in isopropanol and the optical density was measured at 570 nm. CX-4945 was used as a positive control.

H1299 (lung) = test: In vitro cytotoxic activity assay (MTT); type: cell-based; conditions: Homo sapiens, NCI-H1299; H1299 cells, exposed for 96 hours, 50% inhibition of cell proliferation; read-out: Cytotoxicity activity IC50, H1299 (lung)
Description: as §1

HCT116 (colon) = test: In vitro cytotoxic activity assay (MTT); type: cell-based; conditions: Homo sapiens, HCT-116; HCT116 cells, exposed for 96 hours, 50% inhibition of cell proliferation; read-out: Cytotoxicity activity IC50, HCT116 (colon)
Description: as §1

HL60 (leukemia) = test: In vitro cytotoxic activity assay (MTT); type: cell-based; conditions: Homo sapiens, HL-60; HL60 cells, exposed for 96 hours, 50% inhibition of cell proliferation; read-out: Cytotoxicity activity IC50, HL60 (leukemia)
Description: as §1

MCF7 (breast) = test: In vitro cytotoxic activity assay (MTT); type: cell-based; conditions: Homo sapiens; MCF7 cells, exposed for 96 hours, 50% inhibition of cell proliferation; read-out: Cytotoxicity activity IC50, MCF7 (breast)
Description: as §1

MDA-MB-231 (breast) = test: In vitro cytotoxic activity assay (MTT); type: cell-based; conditions: Homo sapiens; MDA-MB-231 cells, exposed for 96 hours, 50% inhibition of cell proliferation; read-out: Cytotoxicity activity IC50, MDA-MB-231 (breast)
Description: as §1

MIAPaCa-2 (pancreas) = test: In vitro cytotoxic activity assay (MTT); type: cell-based; conditions: Homo sapiens, MIA PaCa-2; MIAPaCa-2 cells, exposed for 96 hours, 50% inhibition of cell proliferation; read-out: Cytotoxicity activity IC50, MIAPaCa-2 (pancreas)
Description: as §1

PC3 (prostate) = test: In vitro cytotoxic activity assay (MTT); type: cell-based; conditions: Homo sapiens, PC-3; PC3 cells, exposed for 96 hours, 50% inhibition of cell proliferation; read-out: Cytotoxicity activity IC50, PC3 (prostate)
Description: as §1

[1] = biological target: T1, recombinant human CK2 (RRββ-holoenzyme) (Homo sapiens, UniProt P68400); test: CK2 Kinase Assay (radiometric, [γ-33P] ATP); type: biochemical; conditions: final ATP concentration 15 μM, 10 min at 30° C., eight concentrations; read-out: protein kinase CK2 activity IC50
T1 construct: purchased Millipore
T1 sequence (P68400 whole entry): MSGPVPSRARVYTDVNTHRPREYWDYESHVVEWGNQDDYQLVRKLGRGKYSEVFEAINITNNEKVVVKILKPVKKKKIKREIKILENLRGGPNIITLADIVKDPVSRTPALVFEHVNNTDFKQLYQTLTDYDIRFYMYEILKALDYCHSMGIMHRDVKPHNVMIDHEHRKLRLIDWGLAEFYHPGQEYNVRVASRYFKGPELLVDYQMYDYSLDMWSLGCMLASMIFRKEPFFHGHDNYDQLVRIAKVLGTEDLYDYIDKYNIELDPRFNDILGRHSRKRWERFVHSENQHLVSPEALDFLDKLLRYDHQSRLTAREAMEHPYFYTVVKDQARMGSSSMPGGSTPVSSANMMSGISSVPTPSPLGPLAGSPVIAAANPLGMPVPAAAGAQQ
T1 sequence (P67870 whole entry partner): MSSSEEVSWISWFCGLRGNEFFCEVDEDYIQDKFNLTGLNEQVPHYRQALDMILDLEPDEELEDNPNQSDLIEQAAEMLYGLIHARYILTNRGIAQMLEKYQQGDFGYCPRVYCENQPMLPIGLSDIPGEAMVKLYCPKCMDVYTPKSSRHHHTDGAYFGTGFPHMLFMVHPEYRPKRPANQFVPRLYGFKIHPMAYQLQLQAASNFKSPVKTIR
Description: CK2 Kinase Assay was conducted using the protocol as described in Pierre F. et al; J. Med. Chem. 2011, 54, 635-654. The tested compounds in aqueous solution were added at a volume of 10 μL to a reaction mixture comprising 10 μL of assay dilution buffer (ADB; 20 mM MOPS, pH 7.2, 25 mM β-glycerol phosphate, 5 mM EGTA, 1 mM sodium orthovanadate, and 1 mM dithiothreitol), 10 μL of substrate peptide (RRRDDDSDDD, dissolved in ADB at a concentration of 1 mM), 10 μL of recombinant human CK2 (RRββ-holoenzyme, 25 ng dissolved in ADB; Millipore). Reactions were initiated by the addition of 10 μL of ATP solution (90% 75 mMMgC2, 75 μM ATP (final ATP concentration: 15 μM) dissolved in ADB; 10% [γ-33P] ATP (stock 1 mCi/100 μL; 3000 Ci/mmol (Perkin-Elmer) and maintained for 10 min at 30° C. The reactions were quenched with 100 μL of 0.75% phosphoric acid and then transferred to and filtered through a phosphor cellulose filter plate (Millipore). After washing each well five times with 0.75% phosphoric acid, the plate was dried under vacuum for 5 min and, following the addition of 15 μL of scintillation fluid to each well, the residual radioactivity was measured using a Wallac luminescence counter. The IC50 values were derived from eight concentrations of test inhibitors.

For `Clc1cccc(Nc2nc3[nH]c4cnccc4c3c3ccncc23)c1` [Compound 1, N-(3-chlorophenyl)-7H-pyrido[4′,3′:4,5]pyrrolo[2,3-c][2,7]naphthyridin-5-amine], the IC50 (A375 (melanoma)) was 4700 nM, the IC50 (H1299 (lung)) was 1800 nM and the IC50 (HCT116 (colon)) was 1500 nM. It also gave an IC50 (HL60 (leukemia)) of 3300 nM, an IC50 (MCF7 (breast)) of 5200 nM and an IC50 (MDA-MB-231 (breast)) of 4400 nM. The IC50 (MIAPaCa-2 (pancreas)) was 2400 nM, the IC50 (PC3 (prostate)) was 1300 nM and the IC50 [1] was 334 nM.
